# According to the NIST ThermoML archive (doi:10.1016/j.jct.2018.12.023):
# Numbers after ± are expanded uncertainties.
# Conditions: Liquid, Ebulliometric method (Recirculating still)
structure (smiles),measurement,setting,value
CCOC(=O)CC [ethyl propanoate],vapor or sublimation pressure,372.25 K,101.3 ± 1.6 kPa
CCC(=O)O [propanoic acid],vapor or sublimation pressure,414.32 K,101.3 ± 1.6 kPa
CCI [iodoethane],vapor or sublimation pressure,345.5 K,101.3 ± 1.6 kPa
CCO [ethanol],vapor or sublimation pressure,351.45 K,101.3 ± 1.6 kPa
